Measured values published in patent publication US11203563B2, “Preparation of zinc linolenate, and application of zinc linolenate in preparing anti-helicobacter pylori drug” (NANJING MEDICAL UNIVERSITY, priority 2018, dated 2021).

Legend:
[1] = Animal toxicity, 10 times the therapeutic dose
Experimental: (1) Preparation of mice: 20 8-week-old C57BL/6 mice are randomly divided into an administration group containing 10 mice and a negative control group containing 10 mice.
(2) Intragastric administration: administration is performed with 10 times the therapeutic dose of zinc linolenate, that is, administration is performed according to 240 mg/kg per mouse, once a day for 3 consecutive days. The negative control group is administered with a PBS solution, and the number of times and dose are same as those in the administration group.
(3) Weighing of weight: the weight of mice is weighed 1 day before administration for 7 consecutive days.
(4) Efficacy test: the mice in the infection group are weighed 3 days after the drug is stopped, and the average weight is calculated. Blood is taken from the eyeballs, and the mice are sacrificed by cervical dislocation. Stomach, kidney, liver and spleen tissues are taken, pathologically sectioned and HE stained, and serum is tested for liver and kidney functions.

[2] = system: Helicobacter pylori HP26695; assay: MIC by broth microdilution method; type: cell-based; set-up: key: +: Bacterial growth; −: No bacterial growth; settings: HP26695 (Sensitive), 72 h
Experimental: (§1) 2.1 Detection of minimum inhibitory concentration (MIC, 100 µL system) of zinc linolenate for Helicobacter pylori by a broth microdilution method
(§2) (1) Zinc linolenate (2 mg/mL) is prepared.
(§3) (3) Bacterial solution preparation: the Helicobacter pylori grown in a log phase on a solid plate is taken to make a bacterial suspension with a BHI culture medium, the absorbance (OD600) is adjusted to 0.3 (1×10^8 CFU/mL), and the bacterial suspension is diluted 10 times to 1×10^7 CFU/mL for later use.
(§4) (4) Inoculation of bacterial solution: 10 μL of bacterial solution above is taken and added to the 1-8th wells (the concentration of the bacterial solution per well is about 1.0×10^6 CFU/mL). Culture is performed for 72 h to judge the result. The drug concentrations of the 1-7th wells are 64, 32, 16, 8, 4, 2, and 1 μg/mL, respectively.
(§5) The experiment only makes sense when the bacteria obviously grow in the 8th well, i.e. the positive control well (without antibiotics). When a single drift occurs in the microdilution method, the maximum drug concentration that inhibits bacterial growth should be recorded. If there are multiple drifts, the results should not be reported and the experiment should be repeated. The experiment is repeated 3 times for each drug.

[3] = system: Helicobacter pylori HP159; assay: MIC by broth microdilution method; type: cell-based; set-up: key: +: Bacterial growth; −: No bacterial growth; settings: HP159 (Levofloxacin, clarithromycin and metronidazole resistant), 72 h
Experimental: as §1, §2, §3, §4, §5

[4] = system: Helicobacter pylori HP161; assay: MIC by broth microdilution method; type: cell-based; set-up: key: +: Bacterial growth; −: No bacterial growth; settings: HP161 (Clarithromycin resistant), 72 h
Experimental: as §1, §2, §3, §4, §5

[5] = system: Helicobacter pylori HP160; assay: MIC by broth microdilution method; type: cell-based; set-up: key: +: Bacterial growth; −: No bacterial growth; settings: HP160 (Metronidazole resistant), 72 h
Experimental: as §1, §2, §3, §4, §5

[6] = system: Helicobacter pylori G27; assay: MIC by broth microdilution method; type: cell-based; set-up: key: +: Bacterial growth; −: No bacterial growth; settings: G27 (Sensitive), 72 h
Experimental: as §1, §2, §3, §4, §5

[7] = system: Helicobacter pylori HP162; assay: MIC by broth microdilution method; type: cell-based; set-up: key: +: Bacterial growth; −: No bacterial growth; settings: HP162 (Levofloxacin resistant), 72 h
Experimental: as §1, §2, §3, §4, §5

[8] = system: Helicobacter pylori NSH57; assay: MIC by broth microdilution method; type: cell-based; set-up: key: +: Bacterial growth; −: No bacterial growth; settings: NSH57 (Sensitive), 72 h
Experimental: as §1, §2, §3, §4, §5

[9] = system: Helicobacter pylori HP285; assay: MIC by broth microdilution method; type: cell-based; set-up: key: +: Bacterial growth; −: No bacterial growth; settings: HP285 (Clarithromycin and metronidazole resistant), 72 h
Experimental: as §1, §2, §3, §4, §5

[10] = system: Helicobacter pylori HP163; assay: MIC by broth microdilution method; type: cell-based; set-up: key: +: Bacterial growth; −: No bacterial growth; settings: HP163 (Levofloxacin and metronidazole resistant), 72 h
Experimental: as §1, §2, §3, §4, §5

[11] = system: Helicobacter pylori MSD132; assay: MIC by broth microdilution method; type: cell-based; set-up: key: +: Bacterial growth; −: No bacterial growth; settings: MSD132 (Sensitive), 72 h
Experimental: as §1, §2, §3, §4, §5

CC/C=C\C/C=C\C/C=C\CCCCCCCC(=O)[O-].CC/C=C\C/C=C\C/C=C\CCCCCCCC(=O)[O-].[Zn+2] [zinc linolenate]
weight of the mice ([1]; 240 mg/kg (10 times the therapeutic dose), intragastric, once a day for 3 days, weighed 7 consecutive days): does not change significantly
Alanine aminotransferase ([1]; mouse, in vivo, 240 mg/kg): 23.33 U/L
Aspartate aminotransferase ([1]; mouse, in vivo, 240 mg/kg): 138.33 U/L
Blood urea nitrogen ([1]; mouse, in vivo, 240 mg/kg): 11.90 mmol/L
Creatinine ([1]; mouse, in vivo, 240 mg/kg): 15.00 µmol/L
Bacterial growth ([2]; zinc linolenate 1 μg/ml): +
Bacterial growth ([2]; zinc linolenate 2 μg/ml): +
Bacterial growth ([2]; zinc linolenate 4 μg/ml): +
Bacterial growth ([2]; zinc linolenate 8 μg/ml): −
Bacterial growth ([2]; zinc linolenate 16 μg/ml): −
Bacterial growth ([2]; zinc linolenate 32 μg/ml): −
Bacterial growth ([2]; zinc linolenate 64 μg/ml): −
Bacterial growth ([3]; zinc linolenate 1 μg/ml): +
Bacterial growth ([3]; zinc linolenate 2 μg/ml): +
Bacterial growth ([3]; zinc linolenate 4 μg/ml): +
Bacterial growth ([3]; zinc linolenate 8 μg/ml): −
Bacterial growth ([3]; zinc linolenate 16 μg/ml): −
Bacterial growth ([3]; zinc linolenate 32 μg/ml): −
Bacterial growth ([3]; zinc linolenate 64 μg/ml): −
Bacterial growth ([4]; zinc linolenate 1 μg/ml): +
Bacterial growth ([4]; zinc linolenate 2 μg/ml): +
Bacterial growth ([4]; zinc linolenate 4 μg/ml): +
Bacterial growth ([4]; zinc linolenate 8 μg/ml): −
Bacterial growth ([4]; zinc linolenate 16 μg/ml): −
Bacterial growth ([4]; zinc linolenate 32 μg/ml): −
Bacterial growth ([4]; zinc linolenate 64 μg/ml): −
Bacterial growth ([5]; zinc linolenate 1 μg/ml): +
Bacterial growth ([5]; zinc linolenate 2 μg/ml): +
Bacterial growth ([5]; zinc linolenate 4 μg/ml): −
Bacterial growth ([5]; zinc linolenate 8 μg/ml): −
Bacterial growth ([5]; zinc linolenate 16 μg/ml): −
Bacterial growth ([5]; zinc linolenate 32 μg/ml): −
Bacterial growth ([5]; zinc linolenate 64 μg/ml): −
Bacterial growth ([6]; zinc linolenate 1 μg/ml): +
Bacterial growth ([6]; zinc linolenate 2 μg/ml): +
Bacterial growth ([6]; zinc linolenate 4 μg/ml): −
Bacterial growth ([6]; zinc linolenate 8 μg/ml): −
Bacterial growth ([6]; zinc linolenate 16 μg/ml): −
Bacterial growth ([6]; zinc linolenate 32 μg/ml): −
Bacterial growth ([6]; zinc linolenate 64 μg/ml): −
Bacterial growth ([7]; zinc linolenate 1 μg/ml): +
Bacterial growth ([7]; zinc linolenate 2 μg/ml): −
Bacterial growth ([7]; zinc linolenate 4 μg/ml): −
Bacterial growth ([7]; zinc linolenate 8 μg/ml): −
Bacterial growth ([7]; zinc linolenate 16 μg/ml): −
Bacterial growth ([7]; zinc linolenate 32 μg/ml): −
Bacterial growth ([7]; zinc linolenate 64 μg/ml): −
Bacterial growth ([8]; zinc linolenate 1 μg/ml): +
Bacterial growth ([8]; zinc linolenate 2 μg/ml): +
Bacterial growth ([8]; zinc linolenate 4 μg/ml): +
Bacterial growth ([8]; zinc linolenate 8 μg/ml): −
Bacterial growth ([8]; zinc linolenate 16 μg/ml): −
Bacterial growth ([8]; zinc linolenate 32 μg/ml): −
Bacterial growth ([8]; zinc linolenate 64 μg/ml): −
Bacterial growth ([9]; zinc linolenate 1 μg/ml): +
Bacterial growth ([9]; zinc linolenate 2 μg/ml): +
Bacterial growth ([9]; zinc linolenate 4 μg/ml): +
Bacterial growth ([9]; zinc linolenate 8 μg/ml): −
Bacterial growth ([9]; zinc linolenate 16 μg/ml): −
Bacterial growth ([9]; zinc linolenate 32 μg/ml): −
Bacterial growth ([9]; zinc linolenate 64 μg/ml): −
Bacterial growth ([10]; zinc linolenate 1 μg/ml): +
Bacterial growth ([10]; zinc linolenate 2 μg/ml): +
Bacterial growth ([10]; zinc linolenate 4 μg/ml): +
Bacterial growth ([10]; zinc linolenate 8 μg/ml): −
Bacterial growth ([10]; zinc linolenate 16 μg/ml): −
Bacterial growth ([10]; zinc linolenate 32 μg/ml): −
Bacterial growth ([10]; zinc linolenate 64 μg/ml): −
Bacterial growth ([11]; zinc linolenate 1 μg/ml): +
Bacterial growth ([11]; zinc linolenate 2 μg/ml): +
Bacterial growth ([11]; zinc linolenate 4 μg/ml): +
Bacterial growth ([11]; zinc linolenate 8 μg/ml): −
Bacterial growth ([11]; zinc linolenate 16 μg/ml): −
Bacterial growth ([11]; zinc linolenate 32 μg/ml): −
Bacterial growth ([11]; zinc linolenate 64 μg/ml): −
